# According to ChEMBL document CHEMBL1157777, “Identification of hits as matrix-2 protein inhibitors through the focused screening of a small primary amine library” (J Med Chem, 2010):
# Calls of active or inactive are those of the source. The calls are words filed in the database; no cut-off is given here.
# Columns and labels:
# [1] = Inhibition of avian influenza virus (H5N1) matrix 2 protein expressed in HEK293 cells by path clamp electrophysiology method; assay type: cell-based; conditions: Influenza A virus
# Influenza A virus = experiment: Antiviral activity against Influenza A virus (A/Hong Kong/8/1968([…])) infected in MDCK cells; assay type: functional, organism-based
# [2] = Inhibition of avian influenza virus H5N1 matrix 2 protein expressed in HEK293 cells assessed as cell viability after 24 hrs; assay type: cell-based; conditions: Influenza A virus, H5N1, HEK293, 24 h
# HEK293 = experiment: Inhibition of avian influenza virus (H5N1) matrix 2 protein expressed in HEK293 cells at 50 uM by path clamp electrophysiology method; assay type: cell-based; conditions: Influenza A virus
Compound,IC50 [1] [µM],IC50 (Influenza A virus) [µM],IC50 [2] [µM],inhibition (HEK293)
CC1(C)[C@@H]2CC[C@H](CN)[C@H]1C2,4.4,2.3,25.5,
NC12CC3CC(CC1C3)C2,13.5,38.2,19,
CC(C)(C)C1CCC(N)CC1 (centres undefined),4.8,33.5,3.37,
C[C@@H]1[C@@H](N)C[C@H]2C[C@@H]1C2(C)C,6.8,6.02,23,
C[C@H]1[C@H](N)C[C@@H]2C[C@H]1C2(C)C,4.3,1.36,5.96,
NC12CC3CC(CC(C3)C1)C2 [AMANTADINE],8.8,5.96,3.52,inactive
